According to patent US8889878B2, “Haloalky-substituted amides as insecticides and acaricides” (Bayer CropScience AG, priority 2009, dated 2014):

Tests used:
Boophilus microplus [1] = assay: Boophilus microplus test (BOOPMI injection), Example 1; assay type: in vivo; conditions: application rate 20 μg/animal, injected into abdomen, after 7 days
Method in brief: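 Compound in DMSO, diluted with water, injected into the abdomen of engorged ticks, which were then held in a climate-controlled room. Efficacy was scored after 7 days from fertile egg laying, with 100% meaning no tick laid fertile eggs.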

Boophilus microplus [2] = assay: Boophilus microplus test (BOOPMI injection), Example 11; assay type: in vivo; conditions: application rate 20 μg/animal, injected into abdomen, after 7 days; for pest or weed control at 0.02 mg: Rhipicephalus microplus, 168 h, read-out: efficacy in % (fertile eggs laid)
Method in brief: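 Efficacy rated from fertile egg laying: 100% means none of the ticks laid fertile eggs, read after 7 days. Compound, dissolved and diluted in DMSO, was delivered by abdominal injection, and ticks were kept in dishes under climate control.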

Ctenocephalides felis = Ctenocephalides felis oral (CTECFE), Example 12; assay type: in vivo; conditions: application rate 100 ppm in citrated cow's blood, after 2 days
Description: Ctenocephalides felis Oral ([…]) • Solvent: 1 part by weight of dimethyl sulphoxide For the purpose of preparing an appropriate active ingredient formulation, 10 mg of active ingredient are mixed with 0.5 ml of dimethyl sulphoxide. A portion of the concentrate is diluted with citrated cow's blood and the desired concentration is established. About 20 unfed adult fleas (Ctenocephalides felis) are placed into a chamber sealed at the top and bottom with gauze. A metal cylinder with its lower end sealed with Parafilm is placed onto the chamber. The cylinder contains the blood-active ingredient preparation, which can be consumed by the fleas through the Parafilm membrane. After 2 days, the kill rate in % is determined. 100% means that all fleas were killed; 0% means that no fleas were killed.

[3] = system: mustard beetle (Phaedon cochleariae); assay: Phaedon test (PHAECO spray treatment), Example 16; assay type: in vivo; conditions: china cabbage leaf discs sprayed, after the desired time; for pest or weed control at 500 g/ha / pest or weed control at 100 g/ha: Phaedon cochleariae, foliar, read-out: efficacy in %; for pest or weed control at 100 g/ha: application rate 100 g/ha
Method in brief: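 Chinese cabbage leaf discs sprayed with acetone/DMF-emulsifier formulation of active ingredient diluted in emulsifier-containing water, then infested with mustard beetle larvae after drying. Efficacy scored as % larval kill (100% = all killed, 0% = none) after the chosen time.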

[4] = logP by HPLC on reverse-phase column (EEC Directive 79/831 Annex V.A8); assay type: physicochemical; conditions: for chromatographic logP: reverse-phase C18 HPLC column
Description: The logP values reported in the above Tables and Preparation Examples were determined according to EEC Directive 79/831 Annex V.A8 by HPLC (High Performance Liquid Chromatography) on a reverse-phase column (C18). Temperature 43° C.

Musca domestica adults = assay: Musca domestica test (MUSCDO), Example 14; assay type: in vivo; conditions: application rate 100 ppm, treated sponge, after 2 days
Description: Musca domestica Test (MUSCDO) • Solvent: dimethyl sulphoxide To prepare an appropriate active ingredient formulation, 10 mg of active ingredient are mixed with 0.5 ml of dimethyl sulphoxide, and the concentrate is diluted with water to the desired concentration. Vessels containing a sponge which has been treated with the active ingredient formulation of the desired concentration are populated with Musca domestica adults. After 2 days, the kill rate in % is determined. 100% means that all flies were killed; 0% means that no flies were killed.

[5] = system: mustard beetle (Phaedon cochleariae); assay: Phaedon test (PHAECO spray treatment), Example 7; assay type: in vivo; conditions: application rate 20 g/ha, china cabbage leaf discs sprayed, after 7 days
Method in brief: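 Spray formulation (acetone/DMF with alkylaryl polyglycol ether, diluted in emulsifier-containing water) applied to Chinese cabbage leaf discs, which were dried and then stocked with mustard beetle larvae. Efficacy scored at 7 days as % larvae killed (100% all, 0% none).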

[6] = system: red spider mite (Tetranychus urticae); assay: Tetranychus test, OP-resistant (TETRUR spray treatment), Example 8; assay type: in vivo; conditions: application rate 20 g/ha, common bean leaf discs sprayed, after 6 days
Method in brief: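 Bean (Phaseolus vulgaris) leaf discs carrying all stages of OP-resistant Tetranychus urticae sprayed with compound in acetone/DMF with emulsifier, diluted in water to the test concentration. Mortality scored after 6 days as % efficacy (100% = all mites killed).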

[7] = system: armyworm (Spodoptera frugiperda); assay: Spodoptera frugiperda test (SPODFR spray treatment), Example 15; assay type: in vivo; conditions: maize leaf discs sprayed, after 7 days; for pest or weed control at 100 g/ha / pest or weed control at 500 g/ha: Spodoptera frugiperda, foliar, 168 h, read-out: efficacy in %
Method in brief: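 Caterpillars placed on dried, sprayed Zea mays leaf discs; formulation of acetone, dimethylformamide and emulsifier diluted with emulsifier-containing water to test concentration. Percent kill scored on day 7.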

[8] = system: red spider mite (Tetranychus urticae); assay: Tetranychus test; OP-resistant (TETRUR spray treatment), Example 18; assay type: in vivo; conditions: common bean leaf discs sprayed, after 6 days; for pest or weed control at 100 g/ha / pest or weed control at 500 g/ha: Tetranychus urticae, foliar, 144 h, read-out: efficacy in %; for pest or weed control at 100 g/ha: application rate 100 g/ha
Description: Tetranychus Test; OP-Resistant (TETRUR Spray Treatment)
• Solvent: 78.0 parts by weight of acetone • 1.5 parts by weight of dimethylformamide • Emulsifier: 0.5 part by weight of alkylaryl polyglycol ether
To prepare an appropriate active ingredient formulation, 1 part by weight of active ingredient is mixed with the stated amounts of solvent and emulsifier, and the concentrate is diluted with emulsifier-containing water to the desired concentration. Leaf discs from the common bean (Phaseolus vulgaris) infested by all stages of the red spider mite (Tetranychus urticae) are sprayed with an active ingredient formulation of the desired concentration.
After 6 days, the efficacy in % is determined. 100% means that all spider mites were killed; 0% means that no spider mites were killed.

[9] = system: Boophilus microplus females of the SP-resistant Parkhurst strain; assay: Boophilus microplus test (DIP), Example 10; assay type: in vivo; conditions: application rate 100 ppm, after 7 days
Description: Boophilus microplus Test (DIP)
Test animals: adult engorged Boophilus microplus females of the SP-resistant Parkhurst strain • Solvent: dimethyl sulphoxide
10 mg of active ingredient are dissolved in 0.5 ml of dimethyl sulphoxide. For the purpose of preparing a suitable formulation, the active ingredient solution is diluted with water to the concentration desired in each case.
This active ingredient formulation is pipetted into tubes. 8-10 ticks are transferred into a further tube with holes. The tube is immersed into the active ingredient formulation, and all ticks are completely wetted. After the liquid has run out, the ticks are transferred onto filter discs in plastic dishes and stored in a climate-controlled room. The efficacy is assessed after 7 days by the number of fertile eggs laid. Eggs whose fertility is not outwardly visible are stored in glass tubes in a climate-controlled cabinet until the larvae hatch. Efficacy of 100% means that none of the ticks has laid any fertile eggs.

[10] = system: green peach aphid (Myzus persicae); assay: Myzus test (MYZUPE spray treatment), Example 17; assay type: in vivo; conditions: application rate 100 g/ha, china cabbage leaf discs sprayed, after 6 days
Method in brief: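 Efficacy recorded at 6 days as % kill, where 100% means every aphid dead and 0% none. Spray applied to Brassica pekinensis leaf discs bearing mixed-stage aphids; active ingredient dissolved in acetone with dimethylformamide and emulsifier, then diluted with emulsifier-containing water.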

[11] = pH 2.7, HPLC, C18 reverse phase, 43° C., acidic range pH 2.7, calibration with alkan-2-ones

Row | chromatographic logP [4, 11] | SMILES | kill rate in % (efficacy) (Ctenocephalides felis) | efficacy in % (fertile eggs laid) (Boophilus microplus [2]) | logP ([4]; HPLC-MS) | efficacy in % [5] | pest or weed control at 100 g/ha [3] | pest or weed control at 100 g/ha [8] | other results
1 | 3.39 | O=C(/C=C/c1cccc(NC(=O)c2cccnc2Cl)c1)NC(c1cccc(C(F)(F)F)c1)C(F)(F)F (centres unmarked) [Ia-5, 2-Chloro-N-{3-[(1E)-3-oxo-3-({2,2,2-trifluoro-1-[3-(trifluoromethyl)phenyl]ethyl}amino)prop-1-en-1-yl]phenyl}nicotinamide] | 80% | – | – | – | – | – | efficacy in % (fertile eggs laid) (Boophilus microplus [1]): 100%; pest or weed control at 0.02 mg (Boophilus microplus [2]): 100%; pest or weed control at 500 g/ha ([3]; application rate 500 g/ha): 100%
2 | – | Cc1cc(/C=C/C(=O)NC(c2cccc(C(F)(F)F)c2)C(F)(F)F)ccc1C(=O)NCC(F)(F)F (centres unmarked) [Ia-18] | 98% | 100% | HPLC-MS: logP = 3.56; mass | – | – | – | kill rate in % (efficacy) (Musca domestica adults): 90%
3 | – | Cn1cnc(CNC(=O)c2ccc(/C=C/C(=O)NC(c3cccc(C(F)(F)F)c3)C(F)(F)F)cc2C(F)(F)F)c1 (centres unmarked) [Ia-76] | 80% | 100% | HPLC-MS: logP = 1.72; mass | 100% | – | – | efficacy in % (fertile eggs laid) (Boophilus microplus [1]): 100%
4 | – | Cc1cc(/C=C/C(=O)NC(c2cccc(C(F)(F)F)c2)C(F)(F)F)ccc1C(=O)NCC(F)F (centres unmarked) [Ia-100] | – | – | HPLC-MS: logP = 3.13 mass | 100% | – | – | efficacy in % [6]: 80%; efficacy in % ([7]; application rate 500 g/ha): Ia-100%; efficacy in % ([3]; application rate 500 g/ha): Ia-100%; efficacy in % ([8]; application rate 500 g/ha): Ia-100%
5 | – | CC(NC(=O)c1ccc(/C=C/C(=O)NC(c2cccc(C(F)(F)F)c2)C(F)(F)F)cc1Cl)C1CC1 (centres unmarked) [Ia-114] | – | 100% | HPLC-MS: logP = 3.68 mass | 100% | – | – | efficacy in % [6]: 100%; efficacy in % (fertile eggs laid) [9]: 85%
6 | – | O=C(/C=C/c1ccc(C(=O)NC2CSC2)c(C(F)(F)F)c1)NC(c1cccc(C(F)(F)F)c1)C(F)(F)F (centres unmarked) [Ia-130, 4-[(1E)-3-oxo-3-({2,2,2-trifluoro-1-[3-(trifluoromethyl)phenyl]ethyl}-amino)prop-1-en-1-yl]-N-(thietan-3-yl)-2-(trifluoromethyl)benzamide] | – | – | – | – | 100% | 80% | pest or weed control at 0.02 mg (Boophilus microplus [2]): 100%; efficacy in % [10]: 100%; chromatographic logP ([4]; HPLC-MS): 3.62
7 | – | C#CC(C)(C)NC(=O)c1ccc(/C=C/C(=O)NC(c2cccc(C(F)(F)F)c2)C(F)(F)F)cc1C(F)(F)F (centres unmarked) [Ia-146] | 90% | 100% | HPLC-MS: logP = 3.8; mass | – | – | – | efficacy in % ([7]; application rate 100 g/ha): 100%
8 | – | O=C(/C=C/c1ccc(C(=O)NC(CF)CF)c(Cl)c1)NC(c1cccc(C(F)(F)F)c1)C(F)(F)F (centres unmarked) [Ia-155] | – | 100% | HPLC-MS: logP = 3.36; mass | – | – | – | efficacy in % (fertile eggs laid) [9]: 90%; efficacy in % ([7]; application rate 100 g/ha): 83%; efficacy in % [10]: 100%
9 | 3.78 | CC(C)C(=O)NCc1ccc(/C=C/C(=O)NC(c2cccc(C(F)(F)F)c2)C(F)(F)F)cc1C(F)(F)F (centres unmarked) [Ia-266, (2E)-3-{4-[(Isobutyrylamino)methyl]-3-(trifluoromethyl)phenyl}-N-{2,2,2-trifluoro-1-[3-(trifluoromethyl)phenyl]ethyl}acrylamide] | – | – | – | – | 100% | 90% | pest or weed control at 100 g/ha ([7]; application rate 100 g/ha): 100%
10 | 3.08 | O=C(NC(c1cccc(C(F)(F)F)c1)C(F)(F)F)c1cc2cc(C(=O)NC3CC3)c(Cl)cc2[nH]1 (centres unmarked) [Ic-24, 6-Chloro-N^5-cyclopropyl-N^2-{2,2,2-trifluoro-1-[3-(trifluoromethyl)phenyl]ethyl}-1H-indole-2,5-dicarboxamide] | – | – | – | 100% | – | – | pest or weed control at 0.02 mg (Boophilus microplus [2]): 100%; pest or weed control at 500 g/ha ([7]; application rate 500 g/ha): 100%; pest or weed control at 500 g/ha ([3]; application rate 500 g/ha): 100%; pest or weed control at 500 g/ha ([8]; application rate 500 g/ha): 100%
11 | 3.68 | C=CCNC(=O)c1cc2cc(C(=O)NC(c3cccc(C(F)(F)F)c3)C(F)(F)F)n(C)c2cc1Cl (centres unmarked) [Ic-32, N^5-Allyl-6-chloro-1-methyl-N^2-{2,2,2-trifluoro-1-[3-(trifluoromethyl)phenyl]ethyl}-1H-indole-2,5-dicarboxamide] | – | – | – | – | – | – | pest or weed control at 500 g/ha ([7]; application rate 500 g/ha): 100%; pest or weed control at 500 g/ha ([3]; application rate 500 g/ha): 100%; pest or weed control at 500 g/ha ([8]; application rate 500 g/ha): 100%
12 | 3 | CC(=O)NC1CCc2cc(/C=C/C(=O)NC(c3cccc(C(F)(F)F)c3)C(F)(F)F)ccc21 (centres unmarked) [Ie-1, (2E)-3-(1-Acetamido-2,3-dihydro-1H-inden-5-yl)-N-{2,2,2-trifluoro-1-[3-(trifluoromethyl)-phenyl]ethyl}acrylamide] | – | – | – | – | 100% | 90% | pest or weed control at 100 g/ha ([7]; application rate 100 g/ha): 100%
13 | 3.27 | O=C(/C=C/c1cc(C(F)(F)F)c(C(=O)NC2CC2)cn1)NC(c1cccc(C(F)(F)F)c1)C(F)(F)F (centres unmarked) [If-2, N-Cyclopropyl-6-[(1E)-3-oxo-3-({2,2,2-trifluoro-1-[3-(trifluoromethyl)phenyl]ethyl}amino)-prop-1-en-1-yl]-4-(trifluoromethyl)nicotinamide] | – | – | – | – | 100% | 100% | pest or weed control at 100 g/ha ([7]; application rate 100 g/ha): 83%; efficacy in % [10]: 100%
